From publication PMC12647599 (Nature Communications, 2025)

Experiments:
[1] = molecular target: T1, CrHYC3R (THAS3) (Catharanthus roseus, UniProt A0A1B1FHP1); test: LC-MS/MS relative activity, yeast lysate; format: biochemical; details: 1 mM NADPH, 20 mM Tris-HCl pH 7.5, 30 °C, 4 h
T1 sequence (A0A1B1FHP1 1-377): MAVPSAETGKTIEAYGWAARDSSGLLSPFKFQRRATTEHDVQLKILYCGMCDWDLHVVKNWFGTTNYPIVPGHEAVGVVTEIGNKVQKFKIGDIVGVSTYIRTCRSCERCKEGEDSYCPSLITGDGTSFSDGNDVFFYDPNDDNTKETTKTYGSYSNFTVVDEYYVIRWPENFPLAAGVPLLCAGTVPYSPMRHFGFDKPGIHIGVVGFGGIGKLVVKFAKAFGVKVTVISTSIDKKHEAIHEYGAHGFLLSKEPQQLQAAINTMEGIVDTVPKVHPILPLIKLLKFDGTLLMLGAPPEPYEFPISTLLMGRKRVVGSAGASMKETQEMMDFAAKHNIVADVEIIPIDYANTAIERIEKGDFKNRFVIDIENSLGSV

[2] = system: RtHYC3O; test: LC-MS/MS product assay, non-linear regression; format: biochemical, Rauvolfia tetraphylla; details: 20 mM Tris-HCl pH 7.5, 30 °C, 10 min; air O2; FAD enzyme

Structure (SMILES)	LC-MS/MS relative activity, yeast lysate [1]	Km [2]
COC(=O)[C@@H]1[C@H]2CC3=[N+](CCc4c3[nH]c3ccccc43)C[C@@H]2CC[C@@H]1O [3-dehydro-yohimbine]	efficiently reduced 3-dehydro intermediates of yohimbine and heteroyohimbine types	–
COC(=O)[C@H]1[C@H]2C[C@H]3c4[nH]c5ccccc5c4CCN3C[C@H]2CC[C@@H]1O [rauwolscine]	–	1150 nM
